Where two headings read alike, the source gives them in different places.
Assays:
[1] = test system: carrageenin-induced edema in footpads of hind paws; assay: Carrageenin edema test (antiinflammatory testing); assay type: in vivo, rat; details: 30 mg/kg orally; 3 hours after administration of 1% carrageenin
Protocol: Antiinflammatory testing was carried out via a rat-based carrageenin edema test. Compounds were orally administered in amounts of 30 mg/kg to groups each consisting of 5 to 8 […], and an edema-inducing substance (a 1% carrageenin solution) was administered hypodermically to footpads of hind paws 1 hour later (0.1 ml/mouse). Edema thickness in the footpads of hind paws was measured 1, 2, and 3 hours thereafter.

gastric ulcer = assay: Gastric ulcer formation; assay type: in vivo; details: 30 mg/kg orally, mice, 5 hours later
Protocol: Compound 1 was orally administered in amounts of 30 mg/kg to groups each consisting of 3 to 5 mice, mice were sacrificed with the use of ether 5 hours later, and the stomachs were extracted. The extracted stomachs were opened, each entire stomach was photographed using a stereoscopic microscope, and the lengths of the gastric ulcers were determined.

[2] = test system: acetic acid-induced writhing responses; assay: Acetic acid writhing test (analgesic testing); assay type: in vivo; details: mice; for Number of writhing responses: counted for 10 minutes, average; for Analgesic effect, suppression of the number of writhing responses (in words): oral administration
Protocol: Analgesic testing was carried out via common mice-based acetic acid writhing test. Compounds were administered orally in amounts of 30 mg/kg to groups each consisting of 10 or 11 mice, and a substance that applies pain stimuli, i.e., a 0.7% acetic acid solution, was intraperitoneally administered 30 minutes thereafter (0.1 ml/10 g). The counting of mice-specific writhing responses was initiated 10 minutes after the administration of the acetic acid solution, and the counting was continued for 10 minutes. This test utilizes the fact that a distinct symptom of agony, that is a writhing response, occurs upon administration of a stimulatory substance, such as an acetic acid solution, to a mouse. […] When compound 1 was administered in amounts of 30 mg/kg, however, the number of writhing responses was 5 on average. When compound 1 was administered in amounts of 10 mg/kg, the number of writhing responses was 10 on average. When compound 14 was administered in amounts of 30 mg/kg, the number of writhing responses was 6 on average.

cyclooxygenase 2 (COX-2) = molecular target: T1, cyclooxygenase 2 (COX-2) (Ovis aries, UniProt P79208); assay: Cayman Cyclooxygenase Inhibitor Screening Assay Kit (760111), COX-2; assay type: biochemical; details: for inhibition at 100 µM: read-out: Inhibitory activity of 100 μM compound (%) COX-2
T1 construct: purchased Cayman 760111
T1 sequence (P79208 17-603): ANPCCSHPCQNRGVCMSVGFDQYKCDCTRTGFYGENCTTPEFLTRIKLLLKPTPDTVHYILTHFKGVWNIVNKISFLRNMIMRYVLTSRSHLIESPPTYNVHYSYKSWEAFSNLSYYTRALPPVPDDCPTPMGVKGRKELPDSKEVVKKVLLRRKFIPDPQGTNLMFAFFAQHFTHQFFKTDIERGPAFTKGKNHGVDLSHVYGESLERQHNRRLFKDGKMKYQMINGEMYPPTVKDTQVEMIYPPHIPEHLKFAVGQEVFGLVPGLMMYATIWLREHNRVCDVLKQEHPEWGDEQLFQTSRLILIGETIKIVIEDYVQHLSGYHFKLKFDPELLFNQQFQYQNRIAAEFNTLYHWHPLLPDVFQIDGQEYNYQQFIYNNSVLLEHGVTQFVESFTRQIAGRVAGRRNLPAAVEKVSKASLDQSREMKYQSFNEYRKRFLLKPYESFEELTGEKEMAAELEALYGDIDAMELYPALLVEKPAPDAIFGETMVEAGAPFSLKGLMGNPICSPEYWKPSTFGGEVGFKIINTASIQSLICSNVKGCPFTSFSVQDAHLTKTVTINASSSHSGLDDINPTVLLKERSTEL

cyclooxygenase-1 (COX-1) = molecular target: T2, cyclooxygenase-1 (COX-1) (Ovis aries, UniProt P05979); assay: Cayman Cyclooxygenase Inhibitor Screening Assay Kit (760111), COX-1; assay type: biochemical; details: for inhibition at 100 µM: read-out: Inhibitory activity of 100 μM compound (%) COX-1
T2 construct: purchased Cayman 760111
T2 sequence (P05979 25-600): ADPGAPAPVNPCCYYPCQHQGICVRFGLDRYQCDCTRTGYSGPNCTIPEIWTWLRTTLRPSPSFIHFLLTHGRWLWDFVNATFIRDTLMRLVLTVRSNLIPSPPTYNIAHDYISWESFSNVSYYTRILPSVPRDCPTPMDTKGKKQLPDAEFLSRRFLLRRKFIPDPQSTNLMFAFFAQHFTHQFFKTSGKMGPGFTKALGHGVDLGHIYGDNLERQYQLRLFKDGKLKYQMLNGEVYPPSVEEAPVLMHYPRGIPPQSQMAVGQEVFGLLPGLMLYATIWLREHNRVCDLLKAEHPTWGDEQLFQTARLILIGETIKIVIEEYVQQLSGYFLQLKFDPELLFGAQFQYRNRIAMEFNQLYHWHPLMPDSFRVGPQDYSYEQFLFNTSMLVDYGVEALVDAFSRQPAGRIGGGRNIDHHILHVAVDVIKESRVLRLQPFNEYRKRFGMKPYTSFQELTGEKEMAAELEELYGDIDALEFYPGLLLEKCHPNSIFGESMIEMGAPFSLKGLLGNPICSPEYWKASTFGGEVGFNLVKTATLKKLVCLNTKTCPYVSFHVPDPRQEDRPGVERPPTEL

[3] = 10 mg/kg orally, 0.7% acetic acid i.p.
[4] = 30 mg/kg orally, 0.7% acetic acid i.p. 30 minutes later

Structure (SMILES)	Inhibitory activity against edema (%) [1] [%]	Gastric ulcer formation (in words) (gastric ulcer)	Total length of gastric ulcer (mm) (gastric ulcer)	Number of writhing responses [2, 3]	Number of writhing responses [2, 4]	IC50 (cyclooxygenase 2 (COX-2)) [µM]	inhibition at 100 µM (cyclooxygenase 2 (COX-2)) [%]	IC50 (cyclooxygenase-1 (COX-1)) [µM]	inhibition at 100 µM (cyclooxygenase-1 (COX-1)) [%]	Death of mice (1 g/kg intraperitoneally, 3 mice, observed for 10 days)	Analgesic effect, suppression of the number of writhing responses (in words) [2]	Death of mice (300 mg/kg intraperitoneally, 5 mice, observed for 14 days)
CC(=O)Oc1ccccc1C(=O)O [Aspirin, aspirin, reference compound]	16	significant gastric ulcers	1.61	17	15							
Nc1ccc(NC(=O)c2ccc(C(F)(F)F)cc2)nc1 [Compound 1]	31	not observed	0.09	10	5	> 100	24	1	98	did not die	significantly suppresses	
Nc1ccc(C(=O)Nc2ccc(C(F)(F)F)cn2)cc1 [Compound 14]		not observed	0.01		6	> 100	15	30	65		significantly suppresses	did not die

From patent US20100069443A1, “COMPOUND WITH BENZAMIDE SKELETON HAVING CYCLOOXYGENASE-1 (COX-1)-SELECTIVE INHIBITORY ACTIVITY” (National University Corporation Okayama University, priority 2006, published 2010)
